The text below walks through data of patent US20250115581A1, “SUBSTITUTED PIPERIDINES AS CK1A DEGRADERS” (Monte Rosa Therapeutics, Inc., priority 2022, published 2025).

Data set [1] relates to LS174T. The data set is described as follows: Growth inhibition, CyQUANT Direct Cell Proliferation Assay, LS174T. As to conditions: Homo sapiens; LS174T cells, 120 to 168 hours. Type of data set: cell-based. The method, then: (§1) SKCO1, LS180, and LS174T cell lines were purchased from ATCC. CW2 cell line was purchased from Riken. GP2D cell line was purchased from Sigma/ECACC. All cell lines were cultured in manufacturer's recommended media at 37° C., 5% CO2. Briefly, cells were suspended in 200 μL of media and seeded at 300 to 1,800 cells per well in tissue culture treated 96-well plates with black walls and clear bottom. Plates were incubated overnight and initial (TO) read was performed the following day using CyQUANT Direct Cell Proliferation Assay Kit (Thermo Fisher Scientific) according to manufacturer's protocol. All compounds were solubilized in DMSO and prepared at 3-fold serial dilution, using 9 points starting at 30 μM as highest concentration, administered to cells and incubated for 120 to 168 hours, at which point CyQUANT assay measurement was performed using Acumen Cellista instrument (Ex/Em 480/520 nm). Media-only wells were used as blank, and 0.3% DMSO was used as DMSO-treated cell control. Growth inhibition (percent response) was calculated using the following formula in Excel: “=if ([Compound treated Day N]>[Untreated Day 0, AVG], ([Compound treated Day N]− [Untreated Day 0, AVG])/([Untreated Day N]−[Untreated Day 0, AVG])*100, ([Compound Treated Day N]−[Untreated Day 0, AVG])/([Untreated Day 0, AVG])*100)”. GI50 is the response corresponding to the 50% of untreated control.
(§2) GI50 data are reported in Tables 4a, 4b, 4c, 4d, and 4e for compounds in Table 1. In Tables 4a, 4b, 4c, 4d, and 4e below, According to the code, A represents a GI50 value of ≤0.1 μM, B represents a GI50 value >0.1 μM and ≤1 μM, C represents an GI50 value >1 μM.

In data set [2] the target is T1, CK1α (Homo sapiens, UniProt P48729+Q96SW2).
T1 construct: HEK293 clonal lines with CRISPR KI HiBiT tag on CSNK1A1; host or cells: HEK293 clonal line, CRISPR knock-in HiBiT at the CSNK1A1 locus, stably expressing LgBiT
The data set is described as follows: Western blot of CK1α levels in HEK293 cell line. Type of data set: cell-based. As to conditions: cereblon present, 0.1, 1, 10 μM, 24 hours. The method, then:
(§3) FIG. 1 depicts effects of compound 101 on CK1α levels in an HEK293 cell line in comparison to effects of compound 101 on CK1α levels in a cereblon (CRBN) knock-out HEK293 cell line.
(§4) HEK293 cell line is purchased from ATCC (CRL-1573). HEK293 CRBN knock out (k/o) cell line (B2) is generated internally using CRISPR/Cas9 method and clonally expanded. Cells are plated at 2×10^5 cells per well in 6-well tissue culture plates (VWR) in 2 ml of DMEM media (Gibco) containing 10% FBS (Gibco), and incubated for 16 hours at 37° C., 5% CO2. Compounds are added to final concentration of 0.1 μM, 1 μM, 10 μM (DMSO concentration is kept constant at 0.1%), following incubation at 37° C., 5% CO2 for additional 24 hours. Cell lysis is performed using RIPA buffer (Pierce) containing Halt™ Protease Inhibitor Cocktail (ThermoFisher Scientific). Lysates are boiled at 95° C. for 10 minutes and 12 μg of protein lysate per sample is resolved by SDS-PAGE using 12% gels (BioRad) and transferred to nitrocellulose membrane (BioRad). Membranes are blocked using LI-COR blocking buffer (LI-COR) at room temperature for 1 hour, followed by overnight incubation with rabbit anti-CK1α (Abcam ab206652), rabbit anti-CRBN (Sigma HPA045910) and mouse anti-α-tubulin (Sigma T9026) antibodies at 4° C. Secondary antibodies (LI-COR) are added for a hour at room temperature, followed by imaging with LI-COR imaging system Odyssey® CLx.
On the technique in general: A western blot detects proteins with antibodies after separation by electrophoresis.

In data set [3] the test system is LS180. The data set is described as follows: Growth inhibition, CyQUANT Direct Cell Proliferation Assay, LS180. The settings on record: Homo sapiens; LS180 cells, 120 to 168 hours. Type of data set: cell-based. The protocol:
as §1, §2

Data set [4] deals with CW2. As to the kind of experiment: Growth inhibition, CyQUANT Direct Cell Proliferation Assay, CW2. Type of data set: cell-based. The settings on record: Homo sapiens, CW-2; CW2 cells, 120 to 168 hours. The protocol: as §1, §2
Data set [5] addresses T1, CK1α. The data set is described as follows: Western blot of CK1α levels in cereblon (CRBN) knock-out HEK293 cell line. The data set is classed as cell-based. As to conditions: 0.1, 1, 10 μM, 24 hours. The method, then:
as §3, §4

In data set [6] the test system is SKCO1. As to the kind of experiment: Growth inhibition, CyQUANT Direct Cell Proliferation Assay, SKCO1. Type of data set: cell-based. As to conditions: Homo sapiens, SK-CO-1; SKCO1 cells, 120 to 168 hours. The method, then:
as §1, §2

Data set [7] concerns GP2D. The data set is described as follows: Growth inhibition, CyQUANT Direct Cell Proliferation Assay, GP2D. The settings on record: GP2D cells, 120 to 168 hours. The data set is classed as cell-based. The method, then: as §1, §2
Data set [8] in a line: Mouse oral PK at 10 mg/kg. Type of data set: in vivo, Male BALB/c mice. As to conditions: male, BALB/c, plasma. The protocol:
Male BALB/c mice were fasted overnight and administered a discrete, oral (PO) dose of Compound 107 or Compound 125 at 10 mg/kg.
Blood samples were collected serially from three animals/time-point following PO administration of the test compounds to the mice and placed in tubes containing K2EDTA. The blood samples were centrifuged, and the aliquots of the resulting plasma stored frozen at −60 to −90° C.
The plasma samples were analyzed by LC-MS/MS to determine concentrations of the test compounds. The in-life portion of the study and the bioanalysis of plasma samples was conducted at Wuxi (China).
The pharmacokinetic parameters for the tested compounds were calculated by non-compartmental analysis using Phoenix WinNonlin software.

T1 sequence (P48729 whole entry): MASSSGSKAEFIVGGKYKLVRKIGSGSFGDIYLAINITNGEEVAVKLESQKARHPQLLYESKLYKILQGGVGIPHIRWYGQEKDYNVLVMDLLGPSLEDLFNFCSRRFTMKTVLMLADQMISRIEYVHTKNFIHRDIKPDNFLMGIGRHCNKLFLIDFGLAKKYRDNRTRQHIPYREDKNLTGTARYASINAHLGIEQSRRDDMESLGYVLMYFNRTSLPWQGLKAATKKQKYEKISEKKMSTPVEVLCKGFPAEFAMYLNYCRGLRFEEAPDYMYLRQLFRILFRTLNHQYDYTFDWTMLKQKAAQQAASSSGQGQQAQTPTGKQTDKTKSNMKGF
T1 sequence (Q96SW2 whole entry): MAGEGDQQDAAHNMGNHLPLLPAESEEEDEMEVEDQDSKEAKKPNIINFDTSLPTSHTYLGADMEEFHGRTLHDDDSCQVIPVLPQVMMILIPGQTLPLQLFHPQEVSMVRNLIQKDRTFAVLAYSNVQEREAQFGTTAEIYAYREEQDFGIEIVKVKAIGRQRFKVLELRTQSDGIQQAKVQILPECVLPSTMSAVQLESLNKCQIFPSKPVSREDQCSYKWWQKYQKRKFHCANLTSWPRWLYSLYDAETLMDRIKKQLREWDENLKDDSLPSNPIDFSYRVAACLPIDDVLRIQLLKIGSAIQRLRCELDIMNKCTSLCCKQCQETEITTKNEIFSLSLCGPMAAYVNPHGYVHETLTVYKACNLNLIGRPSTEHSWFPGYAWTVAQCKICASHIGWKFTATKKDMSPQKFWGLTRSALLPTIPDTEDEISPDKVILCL
T1 sequence (Q16531 whole entry partner): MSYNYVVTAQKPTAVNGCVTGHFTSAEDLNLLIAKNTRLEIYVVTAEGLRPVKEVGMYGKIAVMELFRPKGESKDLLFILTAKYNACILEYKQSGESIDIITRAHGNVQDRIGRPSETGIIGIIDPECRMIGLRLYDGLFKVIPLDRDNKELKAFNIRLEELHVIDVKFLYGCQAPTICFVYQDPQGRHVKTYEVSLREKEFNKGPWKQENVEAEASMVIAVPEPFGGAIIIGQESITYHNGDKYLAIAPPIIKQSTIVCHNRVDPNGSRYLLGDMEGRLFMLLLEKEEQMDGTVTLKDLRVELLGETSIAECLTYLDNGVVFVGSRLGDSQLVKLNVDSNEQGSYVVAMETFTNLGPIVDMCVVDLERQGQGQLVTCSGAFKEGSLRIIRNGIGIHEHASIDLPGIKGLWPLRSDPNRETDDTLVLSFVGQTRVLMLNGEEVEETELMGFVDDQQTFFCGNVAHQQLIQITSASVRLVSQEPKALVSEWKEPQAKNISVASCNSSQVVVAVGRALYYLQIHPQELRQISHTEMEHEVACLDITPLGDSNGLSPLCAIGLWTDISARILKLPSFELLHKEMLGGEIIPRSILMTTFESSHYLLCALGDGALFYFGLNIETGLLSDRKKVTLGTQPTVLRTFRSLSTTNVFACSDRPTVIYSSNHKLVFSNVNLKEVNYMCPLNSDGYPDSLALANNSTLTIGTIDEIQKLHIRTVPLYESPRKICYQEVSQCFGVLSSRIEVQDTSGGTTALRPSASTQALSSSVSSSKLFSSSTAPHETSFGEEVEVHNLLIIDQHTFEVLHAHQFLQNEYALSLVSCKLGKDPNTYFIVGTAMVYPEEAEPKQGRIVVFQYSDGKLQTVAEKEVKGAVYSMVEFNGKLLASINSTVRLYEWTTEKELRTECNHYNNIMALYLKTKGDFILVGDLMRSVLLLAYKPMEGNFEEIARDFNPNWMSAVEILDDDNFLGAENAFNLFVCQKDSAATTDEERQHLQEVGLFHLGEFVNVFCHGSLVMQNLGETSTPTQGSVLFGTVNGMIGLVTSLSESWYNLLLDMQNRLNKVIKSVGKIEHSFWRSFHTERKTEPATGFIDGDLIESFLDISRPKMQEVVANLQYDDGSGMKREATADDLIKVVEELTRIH

As for `O=C1CCC(N2Cc3cc(N4CCN(c5ccccc5)C4=O)ccc3C2=O)C(=O)N1` (stereo not shown) [Compound 101, 3-(1-oxo-5-(2-oxo-3-phenylimidazolidin-1-yl)isoindolin-2-yl)piperidine-2,6-dione], the GI50 (as a rule, the concentration that inhibits growth by half) is greater than 1000 nM in data set [1]; greater than 1000 nM in data set [3]; 100 to 1000 nM in data set [4]; 100 to 1000 nM in data set [6]; greater than 1000 nM in data set [7]. Further, the entries for the “effect on CK1α levels (Western blot, FIG. 1)” value in data set [2] and in data set [5] were “decreases CK1α levels” and “no effect on CK1α levels”, respectively.

In the case of `C[C@@H]1CN(c2ccc3c(c2)CN(C2CCC(=O)NC2=O)C3=O)C(=O)N1c1ccccc1` (stereo partly drawn) [Compound 107, 3-(5-((R)-4-methyl-2-oxo-3-phenylimidazolidin-1-yl)-1-oxoisoindolin-2-yl)piperidine-2,6-dione], in data set [1], the GI50 is greater than 1000 nM. The same compound had a 50% growth inhibitory concentration (GI50) in data set [4] of no more than 100 nM. The Tmax (in general, the time at which the peak concentration occurs) in data set [8] worked out at 1 h. Further, in data set [8] (Mean ± SD), the AUC (commonly concentration integrated over time) was determined as 5880 ± 1600 ng·h/mL; the AUC(0-t) (as a rule, exposure summed from dosing to a finite time, without extrapolation to infinity) stood at 5590 ± 1830 ng·h/mL; the peak concentration (Cmax) (as a rule, the highest concentration seen after dosing) was determined as 1520 ± 262 ng/mL; the half-life – broadly, how long it takes for the measured level to halve – is 2.53 ± 0.37 h. The GI50 in data set [6] is 100 to 1000 nM. The compound further had a GI50 in data set [7] of 100 to 1000 nM.

For `C[C@@H]1CN(c2ccc3c(c2)CN(C2CCC(=O)NC2=O)C3=O)C(=O)N1c1ccc(C2CC2)cc1` (stereo partly drawn) [Compound 125, 3-(5-((R)-3-(4-cyclopropylphenyl)-4-methyl-2-oxoimidazolidin-1-yl)-1-oxoisoindolin-2-yl)piperidine-2,6-dione], the GI50 in data set [1] is no more than 100 nM; in data set [3], 100 to 1000 nM; in data set [4], no more than 100 nM; in data set [6] it was no more than 100 nM; in data set [7], 100 to 1000 nM. In addition, the Tmax in data set [8] was found to be 1 h. The compound also yielded an AUC in data set [8] (Mean ± SD) of 1860 ± 495 ng·h/mL. The AUC(0-t) in data set [8] (Mean ± SD) was 1790 ± 504 ng·h/mL. In data set [8] (Mean ± SD), the Cmax amounted to 717 ± 167 ng/mL.
